Results from patent US12202835B2, “Substituted aromatic ring-linked dioxinoquinazolines and dioxinoquinolines as kinase inhibitors” (BEIJING SCITECH-MQ PHARMACEUTICALS LIMITED, priority 2018, dated 2025).
Like-named read-outs stand apart in the source and are kept apart here.

Test system: MHCC97H cells
Assay: Assay for inhibiting the proliferation of MHCC97H cells (CCK-8)
Assay type: cell-based
Description: In particular, the method of the assay of small molecular compounds for inhibiting cell proliferation is as follows: • 1. Cells cultured to a logarithmic growth phase (adherent cells need to be digested with trypsin and neutralized) were taken, pipetted evenly, transferred to a 15 mL centrifuge tube, and centrifuged at 1000 rpm at room temperature for 4 minutes; • 2. The supernatant was discarded; 5 mL of complete medium was added and pipetted evenly; 10 μL of cell suspension was taken out, mixed well with 10 μL of 0.4% trypan blue, and counted under a cell counter; the proportion of living cells was ensured to be above 90%; • 3. 80 μL of cell suspension per well was seeded into a 96-well plate according to the conditions shown in the attached table, and cultured overnight; in the outer 36 wells of the 96-well plate, no cells were added but only sterile water was added; only the inner 60 wells were used for cell assay and control; • 4. 5×compound dilution: the compounds were serially diluted 3-fold to obtain a total of 9 concentrations; 80-fold overall dilution was completed with complete medium, the resulting concentration was 5 times the final drug concentration, and DMSO concentration was 1.25%; • 5. 20 μL of the corresponding compounds with different concentration gradients were added to each well of assay wells of the 96-well plate; 20 μL of complete medium was added to positive and negative control wells and shaken well; and the final concentration of DMSO in each well was 0.25%; • 6. After 72 hours of incubation, 10 μL of CCK-8 reagent was added to each well and further incubated at 37° C. for 1-2 hours; and the OD value was read at 450 nm; • 7. Cell survival rate (%)=[(As−Ab)/(Ac−Ab)]*100% • As: Assay well (medium containing cells, CCK-8, compound), • Ac: Control well (medium containing cells, CCK-8), • Ab: Blank well (CCK-8, medium without cell and compound), • 8. The values were imported into Graphpad Prism 5 software for IC50 calculation.

| Compound | IC50 (Homo sapiens) [nM] | IC50 [nM] |
| --- | --- | --- |
| O=C(Nc1ccc(Oc2ncnc3cc(OCCCN4CCOCC4)c4c(c23)OCCO4)c(F)c1)c1cccn(-c2ccc(F)cc2)c1=O [Example 4, N-(3-fluoro-4-((5-(3-morpholinopropoxy)-2,3-dihydro-[1,4]dioxino[2,3-f]quinazolin-10-yl)oxy)phenyl)-1-(4-fluorophenyl)-2-oxo-1,2-dihydropyridine-3-carboxamide] | ≤ 50 |  |
| COc1ccn(-c2ccc(F)cc2)c(=O)c1C(=O)Nc1ccc(Oc2ncnc3cc(OCCCN4CCOCC4)c4c(c23)OCCO4)c(F)c1 [Example 5, N-(3-fluoro-4-((5-(3-morpholinopropoxy)-2,3-dihydro-[1,4]dioxino[2,3-f]quinazolin-10-yl)oxy)phenyl)-1-(4-fluorophenyl)-4-methoxy-2-oxo-1,2-dihydropyridine-3-carboxamide] | 50 to 200 |  |
| CCOc1ccn(-c2ccc(F)cc2)c(=O)c1C(=O)Nc1ccc(Oc2ncnc3cc(OCCCN4CCOCC4)c4c(c23)OCCO4)c(F)c1 [Example 6, N-(3-fluoro-4-((5-(3-morpholinopropoxy)-2,3-dihydro-[1,4]dioxino[2,3-f]quinazolin-10-yl)oxy)phenyl)-1-(4-fluorophenyl)-4-ethoxy-2-oxo-1,2-dihydropyridine-3-carboxamide] | 50 to 200 |  |
| COc1cc2nccc(Oc3ccc(NC(=O)c4cn(C)c(=O)n(-c5ccc(F)cc5)c4=O)cc3F)c2c2c1OCCO2 [Example 13, N-(3-fluoro-4-((5-methoxy-2,3-dihydro-[1,4]dioxino[2,3-f]quinolin-10-yl)oxy)phenyl)-3-(4-fluorophenyl)-1-methyl-2,4-dioxo-1,2,3,4-tetrahydropyrimidine-5-carboxamide] | 50 to 200 |  |
| Cn1cc(C(=O)Nc2ccc(Oc3ccnc4cc(OCCCN5CCOCC5)c5c(c34)OCCO5)c(F)c2)c(=O)n(-c2ccc(F)cc2)c1=O [Example 15, N-(3-fluoro-4-((5-(3-morpholinopropoxy)-2,3-dihydro-[1,4]dioxino[2,3-f]quinolin-10-yl)oxy)phenyl)-3-(4-fluorophenyl)-1-methyl-2,4-dioxo-1,2,3,4-tetrahydropyrimidine-5-carboxamide] | ≤ 50 |  |
| COc1cc2nccc(Oc3ccc(NC(=O)c4cccn(-c5ccc(F)cc5)c4=O)cc3F)c2c2c1OCCO2 [Example 17, N-(3-fluoro-4-((5-methoxy-2,3-dihydro-[1,4]dioxino[2,3-f]quinolin-10-yl)oxy)phenyl)-1-(4-fluorophenyl)-2-oxo-1,2-dihydropyridine-3-carboxamide] | ≤ 50 |  |
| COc1cc2nccc(Oc3ccc(NC(=O)c4c(OC)ccn(-c5ccc(F)cc5)c4=O)cc3F)c2c2c1OCCO2 [Example 18, N-(3-fluoro-4-((5-methoxy-2,3-dihydro-[1,4]dioxino[2,3-f]quinolin-10-yl)oxy)phenyl)-1-(4-fluorophenyl)-4-methoxy-2-oxo-1,2-dihydropyridine-3-carboxamide] | ≤ 50 |  |
| CCOc1ccn(-c2ccc(F)cc2)c(=O)c1C(=O)Nc1ccc(Oc2ccnc3cc(OC)c4c(c23)OCCO4)c(F)c1 [Example 19, N-(3-fluoro-4-((5-methoxy-2,3-dihydro-[1,4]dioxino[2,3-f]quinolin-10-yl)oxy)phenyl)-1-(4-fluorophenyl)-4-ethoxy-2-oxo-1,2-dihydropyridine-3-carboxamide] | ≤ 50 |  |
| COc1ccn(-c2ccc(F)cc2)c(=O)c1C(=O)Nc1ccc(Oc2ccnc3cc(OCCCN4CCOCC4)c4c(c23)OCCO4)c(F)c1 [Example 21, N-(3-fluoro-4-((5-(3-morpholinopropoxy)-2,3-dihydro-[1,4]dioxino[2,3-f]quinolin-10-yl)oxy)phenyl)-1-(4-fluorophenyl)-4-methoxy-2-oxo-1,2-dihydropyridine-3-carboxamide] | ≤ 50 |  |
| CCOc1ccn(-c2ccc(F)cc2)c(=O)c1C(=O)Nc1ccc(Oc2ccnc3cc(OCCCN4CCOCC4)c4c(c23)OCCO4)c(F)c1 [Example 22, N-(3-fluoro-4-((5-(3-morpholinopropoxy)-2,3-dihydro-[1,4]dioxino[2,3-f]quinolin-10-yl)oxy)phenyl)-1-(4-fluorophenyl)-4-ethoxy-2-oxo-1,2-dihydropyridine-3-carboxamide] | ≤ 50 |  |
| COc1cn(-c2ccc(F)cc2C)nc1C(=O)Nc1ccc(Oc2ccnc3cc(OCCCN4CCOCC4)c4c(c23)OCCO4)c(F)c1 [Example 27, 1-(4-fluoro-2-methylphenyl)-N-(3-fluoro-4-((5-(3-morpholinopropoxy)-2,3-dihydro-[1,4]dioxino[2,3-f]quinolin-10-yl)oxy)phenyl)-4-methoxy-1H-pyrazole-3-carboxamide] | 50 to 200 |  |
| O=C(Nc1ccc(Oc2ccnc3cc(OCCCN4CCCCC4)c4c(c23)OCCO4)c(F)c1)c1cccn(-c2ccc(F)cc2)c1=O [Example 31, N-(3-fluoro-4-((5-(3-(piperidin-1-yl)propoxy)-2,3-dihydro-[1,4]dioxino[2,3-f]quinolin-10-yl)oxy)phenyl)-1-(4-fluorophenyl)-2-oxo-1,2-dihydropyridine-3-carboxamide] |  | ≤ 50 |
| COc1ccn(-c2ccc(F)cc2)c(=O)c1C(=O)Nc1ccc(Oc2ccnc3cc(OCCCN4CCCCC4)c4c(c23)OCCO4)c(F)c1 [Example 32, N-(3-fluoro-4-((5-(3-(piperidin-1-yl)propoxy)-2,3-dihydro-[1,4]dioxino[2,3-f]quinolin-10-yl)oxy)phenyl)-1-(4-fluorophenyl)-4-methoxy-2-oxo-1,2-dihydropyridine-3-carboxamide] | 50 to 200 |  |
| CCOc1ccn(-c2ccc(F)cc2)c(=O)c1C(=O)Nc1ccc(Oc2ccnc3cc(OCCCN4CCCCC4)c4c(c23)OCCO4)c(F)c1 [Example 33, N-(3-fluoro-4-((5-(3-(piperidin-1-yl)propoxy)-2,3-dihydro-[1,4]dioxino[2,3-f]quinolin-10-yl)oxy)phenyl)-1-(4-fluorophenyl)-4-ethoxy-2-oxo-1,2-dihydropyridine-3-carboxamide] | ≤ 50 |  |
| COCCOc1cc2nccc(Oc3ccc(NC(=O)c4cccn(-c5ccc(F)cc5)c4=O)cc3F)c2c2c1OCCO2 [Example 34, N-(3-fluoro-4-((5-(2-methoxyethoxy)-2,3-dihydro-[1,4]dioxino[2,3-f]quinolin-10-yl)oxy)phenyl)-1-(4-fluorophenyl)-2-oxo-1,2-dihydropyridine-3-carboxamide] | ≤ 50 |  |
| COCCOc1cc2nccc(Oc3ccc(NC(=O)c4c(OC)ccn(-c5ccc(F)cc5)c4=O)cc3F)c2c2c1OCCO2 [Example 35, N-(3-fluoro-4-((5-(2-methoxyethoxy)-2,3-dihydro-[1,4]dioxino[2,3-f]quinolin-10-yl)oxy)phenyl)-1-(4-fluorophenyl)-4-methoxy-2-oxo-1,2-dihydropyridine-3-carboxamide] | ≤ 50 |  |
| CCOc1ccn(-c2ccc(F)cc2)c(=O)c1C(=O)Nc1ccc(Oc2ccnc3cc(OCCOC)c4c(c23)OCCO4)c(F)c1 [Example 36, N-(3-fluoro-4-((5-(2-methoxyethoxy)-2,3-dihydro-[1,4]dioxino[2,3-f]quinolin-10-yl)oxy)phenyl)-1-(4-fluorophenyl)-4-ethoxy-2-oxo-1,2-dihydropyridine-3-carboxamide] | ≤ 50 |  |
| Cn1cc(C(=O)Nc2ccc(Oc3ccnc4cc(OCCCN5CCCCC5)c5c(c34)OCCO5)c(F)c2)c(=O)n(-c2ccc(F)cc2)c1=O [Example 39, N-(3-fluoro-4-((5-(3-(piperidin-1-yl)propoxy)-2,3-dihydro-[1,4]dioxino[2,3-f]quinolin-10-yl)oxy)phenyl)-3-(4-fluorophenyl)-1-methyl-2,4-dioxo-1,2,3,4-tetrahydropyrimidine-5-carboxamide] | 50 to 200 |  |
| CCn1cc(C(=O)Nc2ccc(Oc3ccnc4cc(OCCCN5CCCCC5)c5c(c34)OCCO5)c(F)c2)c(=O)n(-c2ccc(F)cc2)c1=O [Example 41, N-(3-fluoro-4-((5-(3-(piperidin-1-yl)propoxy)-2,3-dihydro-[1,4]dioxino[2,3-f]quinolin-10-yl)oxy)phenyl)-3-(4-fluorophenyl)-1-ethyl-2,4-dioxo-1,2,3,4-tetrahydropyrimidine-5-carboxamide] | 50 to 200 |  |
| COCCOc1cc2nccc(Oc3ccc(NC(=O)c4cn(C)c(=O)n(-c5ccc(F)cc5)c4=O)cc3F)c2c2c1OCCO2 [Example 42, N-(3-fluoro-4-((5-(2-methoxyethoxy)-2,3-dihydro-[1,4]dioxino[2,3-f]quinolin-10-yl)oxy)phenyl)-3-(4-fluorophenyl)-1-methyl-2,4-dioxo-1,2,3,4-tetrahydropyrimidine-5-carboxamide] | ≤ 50 |  |
| COc1cc2nccc(Oc3ccc(NC(=O)c4cn(CCCO)c(=O)n(-c5ccc(F)cc5)c4=O)cc3F)c2c2c1OCCO2 [Example 99, N-(3-fluoro-4-((5-methoxy-2,3-dihydro-[1,4]dioxino[2,3-f]quinolin-10-yl)oxy)phenyl)-3-(4-fluorophenyl)-1-(3-hydroxypropyl)-2,4-dioxo-1,2,3,4-tetrahydropyrimidine-5-carboxamide] | 50 to 200 |  |
